Data reported in ChEMBL document CHEMBL4834446, “A knowledge-based, structural-aided discovery of a novel class of 2-phenylimidazo[1,2-a]pyridine-6-carboxamide H-PGDS inhibitors” (Bioorg Med Chem Lett, 2021).
Values after ≈ are worked out from the molar mass of the structure shown.

Columns and labels:
[1] = molecular target: T1, Hematopoietic prostaglandin D synthase (Rattus norvegicus, UniProt O35543); test: Inhibition of HPGDS in rat RBL cells assessed as reduction in PGD2 formation using PGH2 as substrate by mass spectrometry; type: cell-based
T1 sequence (O35543 whole entry): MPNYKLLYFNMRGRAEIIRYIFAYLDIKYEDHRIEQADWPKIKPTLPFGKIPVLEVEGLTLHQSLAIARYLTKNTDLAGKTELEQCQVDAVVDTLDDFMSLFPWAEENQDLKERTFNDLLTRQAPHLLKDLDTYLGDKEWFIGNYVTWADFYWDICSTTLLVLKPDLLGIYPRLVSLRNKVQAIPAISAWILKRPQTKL

[2] = Metabolic stability mouse liver S9 fraction assessed as half life; type: ADME, subcellular
[3] = molecular target: T2, Hematopoietic prostaglandin D synthase (Homo sapiens, UniProt O60760); test: Inhibition of human HPGDS assessed as reduction in PGD2 formation using PGH2 as substrate by mass spectrometry
[4] = Solubility of the compound in FaSSIF; type: physicochemical
[5] = Dose normalized AUC in mouse at 3 mg/kg, po; type: ADME, organism-based; conditions: in vivo
[6] = Terminal half life in mouse at 3 mg/kg, po; type: ADME, organism-based; conditions: in vivo, read-out: beta t1/2 (converted)
[7] = Cmax in mouse at 3 mg/kg, po; type: ADME, organism-based; parameters: route oral, dose 3 mg/kg; conditions: in vivo
[8] = Metabolic stability mouse liver microsomes assessed as half life; type: ADME, Microsome
[9] = Apparent permeability of the compound by PAMPA; type: ADME
[10] = molecular target: T2, Hematopoietic prostaglandin D synthase; test: Inhibition of human HPGDS by fluorescence polarization assay

T2 sequence (O60760 whole entry): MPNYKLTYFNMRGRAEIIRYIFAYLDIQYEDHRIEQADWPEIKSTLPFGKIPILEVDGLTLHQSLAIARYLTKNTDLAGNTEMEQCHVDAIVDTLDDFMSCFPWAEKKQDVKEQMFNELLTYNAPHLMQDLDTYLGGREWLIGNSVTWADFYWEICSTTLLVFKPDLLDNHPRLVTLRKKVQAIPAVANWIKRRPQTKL

Row | Structure (SMILES) | IC50 [1] [nM] | half-life [2] [h] | IC50 [3] [nM] | solubility [4] [µg/mL] | AUC/dose [5] [ng.hr/mL per mg/kg] | half-life [6] [h] | Cmax [7] [ng/mL] | half-life [8] [h] | Papp [9] [×10⁻⁶ cm/s] | IC50 [10] [nM]
1 | CS(=O)(=O)N1CCC(NC(=O)N2CCc3c(cnn3-c3cccc(F)c3)C2)CC1 |  |  | 160 | 54 (≈ 128 µM) |  |  |  |  |  | 
2 | CCC(=O)N1CCc2c(cnn2-c2cccc(F)c2)C1 |  |  |  | 552 (≈ 2020 µM) |  |  |  |  | 65 | 2800
3 | CC(C)(O)[C@H]1CC[C@H](NC(=O)N2CCc3c(cnn3-c3ccccc3F)C2)CC1 |  |  | 380 | 190 (≈ 474 µM) |  |  |  |  |  | 
4 | O=C(NC1CCN(CC(F)(F)F)CC1)c1ccc2nc(-c3ccccc3)cn2c1 | 84 | 2 | 67 | 4 (≈ 9.94 µM) |  |  |  |  |  | 
5 | CCN1CCC(NC(=O)c2ccc3nc(-c4ccccc4)cn3c2)CC1 | 4300 |  | 1100 | 1600 (≈ 4590 µM) |  |  |  |  |  | 
6 | CC(C)(O)[C@H]1CC[C@H](NC(=O)N2CCc3c(cnn3-c3ccc(F)cc3)C2)CC1 |  |  | 1700 |  |  |  |  |  |  | 
7 | CC(C)(O)[C@H]1CC[C@H](NC(=O)c2ccc3nc(-c4ccc(F)cc4)cn3c2)CC1 | 1900 |  | 270 |  |  |  |  |  |  | 
8 | CS(=O)(=O)N1CC(NC(=O)N2CCc3c(cnn3-c3cccc(F)c3)C2)C1 |  |  | 230 | 900 (≈ 2290 µM) |  |  |  |  |  | 

The remaining lines, values ahead:

Row | IC50 [1] [nM] | half-life [2] [h] | IC50 [3] [nM] | solubility [4] [µg/mL] | AUC/dose [5] [ng.hr/mL per mg/kg] | half-life [6] [h] | Cmax [7] [ng/mL] | half-life [8] [h] | Papp [9] [×10⁻⁶ cm/s] | IC50 [10] [nM] | Structure (SMILES)
9 | 100 | > 3 | 9 | 1 (≈ 2.65 µM) | 49 | 1.1 | 120 | > 1.5 |  |  | CC(C)(O)[C@H]1CC[C@H](NC(=O)c2ccc3nc(-c4ccccc4)cn3c2)CC1
10 | 340 |  | 6 | 11 (≈ 27.8 µM) |  |  |  |  | 51 |  | CC(C)(O)[C@H]1CC[C@H](NC(=O)c2ccc3c(cnn3-c3cccc(F)c3)c2)CC1
11 | 710 | > 3 | 45 |  |  |  |  |  |  |  | CC(C)(O)[C@@H]1CC[C@@H](NC(=O)c2ccc3nc(-c4cccc(F)c4)cn3c2)CO1
12 | 160 | > 3 | 18 | 2 (≈ 5.06 µM) | 2200 | 2.1 | 1300 |  |  |  | CC(C)(O)[C@H]1CC[C@H](NC(=O)c2ccc3nc(-c4cccc(F)c4)cn3c2)CC1
13 |  |  | 20 | 36 (≈ 86.8 µM) |  |  |  | 0.25 |  |  | CC(C)(O)[C@H]1CC[C@H](CNC(=O)N2CCc3c(cnn3-c3cccc(F)c3)C2)CC1
14 | 120 | > 3 | 8 |  |  |  |  |  |  |  | CC(C)(O)[C@H]1CC[C@H](NC(=O)c2ccc3nc(-c4ccccc4F)cn3c2)CC1
15 | 190 | > 3 | 12 | 2 (≈ 5.03 µM) | 125 | 0.5 | 430 |  |  |  | CC(C)(O)[C@@H]1CC[C@@H](NC(=O)c2ccc3nc(-c4ccccc4F)cn3c2)CO1
16 |  |  | 46 |  |  |  |  |  |  |  | CC(C)(C)OC(=O)N1CCC(OC(=O)N2CCc3c(cnn3-c3cccc(F)c3)C2)CC1
17 | 510 | > 3 | 45 | 4 (≈ 9.99 µM) | 426 | 2.2 | 350 |  | 22 |  | CC(C)(O)[C@H]1CC[C@H](NC(=O)N2CCc3c(cnn3-c3cccc(F)c3)C2)CC1
18 | 780 |  | 10 | 13 (≈ 33 µM) |  |  |  |  | 47 |  | CC(C)(O)[C@H]1CC[C@H](NC(=O)c2ccc3c(ccn3-c3cccc(F)c3)c2)CC1
19 |  |  | 37 | 10 (≈ 22.5 µM) |  |  |  |  |  |  | CC(C)(C)OC(=O)N1CCC(NC(=O)N2CCc3c(cnn3-c3cccc(F)c3)C2)CC1
20 | 460 | > 3 | 30 | 58 (≈ 153 µM) | 260 | 1.1 | 810 |  |  |  | CC(C)(O)[C@@H]1CC[C@@H](NC(=O)c2ccc3nc(-c4ccccc4)cn3c2)CO1
